≈ marks a conversion by molar mass, not a printed value. Where two headings read alike, the source gives them in different places.
Assays:
Assay in all cases: MIC microtiter plate test, axilla bacteria
Assay type in all cases: cell-based
[1] = tested on: Ax 10 Corynebacterium jeikeium; settings: Corynebacterium jeikeium, 24 h, read-out: Minimal inhibitory concentration (MIC)
Excerpt: (§1) The different bacterial strains had been isolated from the human axilla by current microbiological practice. They were taxonomically identified by cell morphology, gram-reaction and biochemical tests included in the Api coryne test kit (BioMerieux, France). Strain Staphylococcus epidermidis Ax25 was identified by fatty acid methyl ester analysis (FAME; German type strain collection DSMZ, Germany). The strains were maintained on Tryptic soy broth plates, this standard medium being amended with 5 g per Litre of Tween 80 and 1 g of Soybean lecithin. Plates were incubated at 36° C for a period 48 hours. The bacteria were then swabbed from the plates and suspended in 4 ml of Müller-Hinton broth amended with 100 mg of Tween80 per Litre (MH-Tween) and incubated again at 36° C for 16 hours. Following incubation the bacterial suspensions were diluted in MH-Tween to obtain a final cell density of 10^6 colony forming units per ml. For each fragrance material four microtiter plates were used in the example, each microtiter plate having 8 rows, A-H, and 12 columns, 1-12. To each column a diluted suspension of a different test organism was distributed, 100 µl per well. 1% stock solutions of the fragrance materials were then prepared in MH-Tween broth. The fragrance material was dispersed by ultrasonication into the aqueous medium to obtain a homogenous emulsion. 100 µl per well of this emulsion was then added to the first row of the microtiter plates already containing the target organisms. Serial dilution series were then prepared starting at row A and continuing until row G, each time removing 100 µl from a well and transferring it to the next well. In this way fragrance concentrations of 0.5%, 0.25%, 0.125%, 0.0625%, 0.03125%, 0.0156% and 0.0078% were tested for their antibacterial efficacy. The reference compound Triclosan was tested at 16 fold lower concentrations. The plates were covered with plastic films and incubated for 24 h at 36° C with shaking at 250 rpm. The turbidity developing in the microtiter plates was then examined after 24 h to determine microbial growth. The minimal concentration of fragrance inhibiting the growth of an organism by at least 80% was determined as the minimal inhibitory concentration (MIC).
(§2) Ax 25 was identified as Staphylococcus epidermidis by FAME analysis. Identification with the Api Coryne test kit yielded the following species assignments for the remainder of the strains: Ax 26 Corynebacterium sp.; Ax 3 Corynebacterium bovis; Ax 7 Corynebacterium group G; Ax 10 Corynebacterium jeikeium; Ax 11 Corynebacterium jeikeium; Ax 12 Corynebacterium jeikeium; Ax 15 Corynebacterium jeikeium; Ax 20 Corynebacterium striatum/amycolatum; Ax 19 Corynebacterium jeikeium. The strains were isolated from the axilla of 8 human volunteers. Based on biochemical tests and colony morphology all strains were distinct from each other, even the several strains all belonging to Corynebacterium jeikeium.

[2] = tested on: Ax 11 Corynebacterium jeikeium; settings: Corynebacterium jeikeium, 24 h, read-out: Minimal inhibitory concentration (MIC)
Excerpt: as §1, §2

[3] = tested on: Ax 12 Corynebacterium jeikeium; settings: Corynebacterium jeikeium, 24 h, read-out: Minimal inhibitory concentration (MIC)
Excerpt: as §1, §2

[4] = tested on: Ax 15 Corynebacterium jeikeium; settings: for MIC: Corynebacterium jeikeium, 24 h
Excerpt: as §1, §2

[5] = tested on: Ax 19 Corynebacterium jeikeium; settings: 24 h, read-out: Minimal inhibitory concentration (MIC)
Excerpt: as §1, §2

[6] = tested on: Ax 20 Corynebacterium striatum/amycolatum; settings: Corynebacterium striatum, 24 h, read-out: Minimal inhibitory concentration (MIC)
Excerpt: as §1, §2

[7] = tested on: Ax 26 Corynebacterium sp.; settings: for MIC: Corynebacterium
Excerpt: as §1, §2

[8] = tested on: Ax 3 Corynebacterium bovis; settings: Corynebacterium bovis, 24 h, read-out: Minimal inhibitory concentration (MIC)
Excerpt: as §1, §2

[9] = tested on: Ax 7 Corynebacterium group G; settings: for MIC: Corynebacterium, 24 h
Excerpt: as §1, §2

[10] = tested on: Staphylococcus epidermidis Ax25; settings: for MIC: Staphylococcus epidermidis, AX25, 24 h
Excerpt: as §1, §2

[11] = read-out: Bacteriostatic activity (concentration needed for at least 80% reduction in growth)
[12] = read-out: Minimal inhibitory concentration (MIC)

Oc1cc(Cl)ccc1Oc1ccc(Cl)cc1Cl [Triclosan, 2,4,4'-trichloro-2'-hydroxy-diphenyl-ether]
MIC [1]: 20 µg/mL (≈ 69.1 µM)
MIC [2]: 29 µg/mL (≈ 100 µM)
MIC [3]: 17 µg/mL (≈ 58.7 µM)
MIC [4, 11]: 30 µg/mL (≈ 104 µM)
MIC [4, 12]: 29 µg/mL (≈ 100 µM)
Bacteriostatic activity (concentration needed for at least 80% reduction in growth) ([4]; Table 8, Corynebact. Ax15, 24 hours): 0.0030 percent (w/v)
MIC [5]: 39 µg/mL (≈ 135 µM)
MIC [6]: 107 µg/mL (≈ 370 µM)
MIC ([7]; Ax26, growth inhibition by at least 80%, 24 h at 36° C, read-out: Minimal inhibitory concentration (MIC)): 15 µg/mL (≈ 51.8 µM)
MIC ([7]; Table 7, Corynebact. Ax26, 24 hours, read-out: Bacteriostatic activity (concentration needed for at least 80% reduction in growth)): 25 µg/mL (≈ 86.3 µM)
Bacteriostatic activity (concentration needed for at least 80% reduction in growth) ([7]; Table 8, Corynebact. Ax26, 24 hours): 0.0025 percent (w/v)
MIC [8]: 29 µg/mL (≈ 100 µM)
MIC [9, 11]: 25 µg/mL (≈ 86.3 µM)
MIC [9, 12]: 29 µg/mL (≈ 100 µM)
Bacteriostatic activity (concentration needed for at least 80% reduction in growth) ([9]; Table 8, Corynebact. Ax7, 24 hours): 0.0025 percent (w/v)
MIC [10, 11]: 0.15 µg/mL (≈ 0.518 µM)
MIC [10, 12]: 0.15 µg/mL (≈ 0.518 µM)
Bacteriostatic activity (concentration needed for at least 80% reduction in growth) ([10]; Table 8, S. epidermidis, 24 hours): 0.000015 percent (w/v)
